From patent US20160136193A1, “TREATMENT OF SYMPTOMS ASSOCIATED WITH BACTERIAL VAGINOSIS” (IDH Holding ApS, priority 2003, published 2016)

Tests used:
Bacterial Vaginosis = conditions: cited from earlier work
[1] = tested on: symptoms associated with bacterial vaginosis; experiment: Treatment of a person with recurrent vaginal fishy-smelling secretions (Example 9); format: in vivo, human; conditions: after two 7-day treatments
Description: A person had suffered from discomfort and vaginal secretions of fishy smell recurring after two 7-day treatments with metronidazole. The vaginal pH was approximately 5.3, varying between 5.0 and 5.5.
A lactose suspension (1-3 ml) as prepared in Example 8 was instilled into the vagina twice daily. After approximately 24 hours the pH lowered to 4.7 and the fishy odor disappeared. Continuous application once a day further lowered the pH down to approximately 4.4. The treatment was continued for 4 days.
After 4 days symptoms such as the fishy odor recurred; however, the symptoms disappeared after one day of the treatment described above.

| Compound | cure rate (Bacterial Vaginosis; 7-day treatment, after 1 month) | side effects (Bacterial Vaginosis; 7-day treatment) | discomfort and vaginal secretions of fishy smell after treatment [1] | benefits in studies (Bacterial Vaginosis; alternative measures) |
| --- | --- | --- | --- | --- |
| Cc1ncc([N+](=O)[O-])n1CCO [Metronidazole] | 80-90% | nausea, abdominal cramps and a metallic taste | recurring |  |
| Lactobacillus acidophilus |  |  |  | have not demonstrated benefits |
| CCC[C@@H]1C[C@@H](C(=O)N[C@@H]([C@H]2O[C@H](SC)[C@H](O)[C@@H](O)[C@H]2O)[C@H](C)Cl)N(C)C1 [Clindamycin] |  | less, though diarrhea is possible |  |  |
